Data taken from patent US20210212968A1, “COMBINATIONS COMPRISING AN SSAO/VAP-1 INHIBITOR AND A SGLT2 INHIBITOR, USES THEREOF” (Boehringer Ingelheim International GmbH, priority 2016, published 2021).

Columns and labels:
SGLT2 versus SGLT1 = conditions: cited from earlier work
[1] = patients with type 2 diabetes mellitus at high risk for cardiovascular events; cited from earlier work
[2] = metformin on its own, in the diabetic; cited from earlier work
human diamine oxidase = target: T1, human diamine oxidase (Homo sapiens, UniProt P19801); experiment: inhibition of human diamine oxidase; format: biochemical
T1 sequence (P19801 20-751): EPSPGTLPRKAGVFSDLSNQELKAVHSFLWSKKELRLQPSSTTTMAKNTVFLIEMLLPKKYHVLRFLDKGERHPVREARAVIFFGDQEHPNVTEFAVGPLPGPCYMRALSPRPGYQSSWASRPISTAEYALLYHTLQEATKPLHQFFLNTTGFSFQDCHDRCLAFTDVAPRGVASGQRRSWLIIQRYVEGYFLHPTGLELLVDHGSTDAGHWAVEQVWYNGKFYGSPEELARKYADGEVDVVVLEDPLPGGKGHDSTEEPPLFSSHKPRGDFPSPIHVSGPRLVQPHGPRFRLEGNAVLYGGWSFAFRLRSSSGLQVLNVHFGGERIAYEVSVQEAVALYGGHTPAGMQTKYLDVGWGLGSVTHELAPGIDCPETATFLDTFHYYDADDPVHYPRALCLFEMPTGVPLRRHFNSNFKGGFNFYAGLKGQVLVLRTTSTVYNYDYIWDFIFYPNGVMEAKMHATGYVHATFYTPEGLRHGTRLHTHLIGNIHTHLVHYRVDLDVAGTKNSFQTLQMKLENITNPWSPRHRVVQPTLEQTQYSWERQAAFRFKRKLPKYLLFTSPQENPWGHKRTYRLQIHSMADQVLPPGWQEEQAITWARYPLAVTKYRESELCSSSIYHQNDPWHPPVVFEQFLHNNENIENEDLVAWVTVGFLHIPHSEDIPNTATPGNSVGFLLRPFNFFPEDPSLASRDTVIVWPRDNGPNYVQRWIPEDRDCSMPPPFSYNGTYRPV

Question: What does the source list for `OC[C@H]1O[C@@H](c2ccc(Cl)c(Cc3ccc(O[C@H]4CCOC4)cc3)c2)[C@H](O)[C@@H](O)[C@@H]1O` [empagliflozin]?
Answer: selectivity SGLT2 versus SGLT1 (SGLT2 versus SGLT1): high selectivity; rates of the primary composite cardiovascular outcome and of death from any cause [1]: significantly lower rates

Question: For `CN(C)C(=N)N=C(N)N` [metformin], which “average improvement in the HbA1c value” [2] is on record?
Answer: 1.0-1.5%

Question: Which “inhibitory activity against human diamine oxidase” value (human diamine oxidase) does the source give for `CC(C)(C)NC(=O)c1ccc(OC/C(=C/F)CN)cc1` [Compound 23, (E)-4-(2-(Aminomethyl)-3-fluoroallyloxy)-N-tert-butylbenzamide] here?
Answer: low inhibitory activity
